“And” between values parts separate entries of the source, which are not always exact repeats. Identical values can stand only once.
Assays:
Test in all cases: PDSP GPCR panel primary binding assays at 10 μM
[1] = target: T1, cloned human or rodent CNS receptors, channels, and transporters (PDSP panel) (Homo sapiens, UniProt P08173); details: M4, primary assay; for Mean %: mean inhibition; for Inhibition 1: replicate 1; for Inhibition 2: replicate 2; for Inhibition 3: replicate 3; for Inhibition 4: replicate 4
T1 construct: expressed in transfected cells
T1 sequence (P08173 1-479): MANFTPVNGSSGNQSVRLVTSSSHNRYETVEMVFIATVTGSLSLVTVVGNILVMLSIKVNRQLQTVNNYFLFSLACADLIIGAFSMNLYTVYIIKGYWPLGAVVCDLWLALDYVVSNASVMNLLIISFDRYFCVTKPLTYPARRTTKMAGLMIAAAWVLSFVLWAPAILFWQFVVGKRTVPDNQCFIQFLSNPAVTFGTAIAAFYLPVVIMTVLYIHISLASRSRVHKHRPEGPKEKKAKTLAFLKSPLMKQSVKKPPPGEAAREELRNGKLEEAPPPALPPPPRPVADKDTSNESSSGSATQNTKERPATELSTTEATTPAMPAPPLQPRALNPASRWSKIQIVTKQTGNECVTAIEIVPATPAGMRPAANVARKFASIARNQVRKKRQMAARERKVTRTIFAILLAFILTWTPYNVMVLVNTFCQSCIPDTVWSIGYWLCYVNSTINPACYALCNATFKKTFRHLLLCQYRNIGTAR
Description: (§1) GPCR panel: Screening against the receptors within the PDSP panel offers an assessment of off-target pharmacological activity at cloned human or rodent CNS receptors, channels, and transporters that could confound CNS-related phenotypes. A total of 46–47 primary binding assays were run in quadruplicate on these compounds at 10 μM, with follow-up secondary binding assays in 11-point dose-response in triplicate for select compounds versus select receptors. Secondary binding assays were executed for all receptors where test compound displaced an average of >50% of radio-labeled standard ligand. As an exception, no secondary assays were carried out for H3, PBR, or GABAA. […]

[2] = target: T2, cloned human or rodent CNS receptors, channels, and transporters (PDSP panel) (Homo sapiens, UniProt P11229); details: M1, primary assay; for Mean %: mean inhibition; for Inhibition 1: replicate 1; for Inhibition 2: replicate 2; for Inhibition 3: replicate 3; for Inhibition 4: replicate 4
T2 construct: expressed in transfected cells
T2 sequence (P11229 1-460): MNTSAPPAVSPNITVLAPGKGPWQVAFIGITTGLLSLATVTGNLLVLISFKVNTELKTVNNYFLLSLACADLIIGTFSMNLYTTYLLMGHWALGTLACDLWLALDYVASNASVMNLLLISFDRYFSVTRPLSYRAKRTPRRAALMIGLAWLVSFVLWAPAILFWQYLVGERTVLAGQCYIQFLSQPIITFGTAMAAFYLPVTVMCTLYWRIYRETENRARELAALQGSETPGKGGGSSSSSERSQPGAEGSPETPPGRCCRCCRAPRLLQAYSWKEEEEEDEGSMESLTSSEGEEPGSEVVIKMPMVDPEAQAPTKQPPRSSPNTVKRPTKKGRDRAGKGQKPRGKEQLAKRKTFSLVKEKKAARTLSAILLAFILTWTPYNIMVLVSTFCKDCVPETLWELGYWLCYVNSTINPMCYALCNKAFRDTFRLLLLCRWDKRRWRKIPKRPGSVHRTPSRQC
Description: as §1

[3] = target: T3, cloned human or rodent CNS receptors, channels, and transporters (PDSP panel) (Homo sapiens, UniProt P20309); details: M3, primary assay; for Mean %: mean inhibition; for Inhibition 1: replicate 1; for Inhibition 2: replicate 2; for Inhibition 3: replicate 3; for Inhibition 4: replicate 4
T3 construct: expressed in transfected cells
T3 sequence (P20309 whole entry): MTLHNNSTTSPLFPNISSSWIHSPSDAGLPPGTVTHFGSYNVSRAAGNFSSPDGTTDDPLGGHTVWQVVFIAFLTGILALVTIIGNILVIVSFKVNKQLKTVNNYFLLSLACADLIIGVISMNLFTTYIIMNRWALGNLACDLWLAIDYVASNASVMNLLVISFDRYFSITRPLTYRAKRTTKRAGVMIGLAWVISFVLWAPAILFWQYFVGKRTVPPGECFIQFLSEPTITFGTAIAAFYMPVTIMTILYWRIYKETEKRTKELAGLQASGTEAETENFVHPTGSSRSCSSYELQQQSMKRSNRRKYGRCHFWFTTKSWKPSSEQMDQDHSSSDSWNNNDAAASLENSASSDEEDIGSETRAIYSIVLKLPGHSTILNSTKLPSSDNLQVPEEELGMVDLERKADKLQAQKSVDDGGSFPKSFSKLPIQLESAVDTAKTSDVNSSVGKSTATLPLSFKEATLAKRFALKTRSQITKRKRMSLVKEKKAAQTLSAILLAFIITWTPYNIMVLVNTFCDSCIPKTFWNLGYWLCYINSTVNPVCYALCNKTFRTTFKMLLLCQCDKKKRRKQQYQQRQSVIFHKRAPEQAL
Description: as §1

[4] = target: T4, cloned human or rodent CNS receptors, channels, and transporters (PDSP panel) (Homo sapiens, UniProt P28566); details: 5-HT1E, primary assay; for Mean %: mean inhibition; for Inhibition 1: replicate 1; for Inhibition 2: replicate 2; for Inhibition 3: replicate 3; for Inhibition 4: replicate 4
T4 construct: expressed in transfected cells
T4 sequence (P28566 whole entry): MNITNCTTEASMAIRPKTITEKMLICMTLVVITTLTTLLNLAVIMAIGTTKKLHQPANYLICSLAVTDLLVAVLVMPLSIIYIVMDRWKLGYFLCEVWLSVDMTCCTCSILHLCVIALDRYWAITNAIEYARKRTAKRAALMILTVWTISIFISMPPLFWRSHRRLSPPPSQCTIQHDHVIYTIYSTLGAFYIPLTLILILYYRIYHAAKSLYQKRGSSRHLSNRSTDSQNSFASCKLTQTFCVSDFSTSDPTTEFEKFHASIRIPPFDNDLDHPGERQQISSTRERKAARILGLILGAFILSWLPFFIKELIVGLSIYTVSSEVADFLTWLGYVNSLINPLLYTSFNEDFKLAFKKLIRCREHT
Description: as §1

[5] = target: T5, cloned human or rodent CNS receptors, channels, and transporters (PDSP panel) (Homo sapiens, UniProt P35372); details: MOR, primary assay; for Mean %: mean inhibition; for Inhibition 1: replicate 1; for Inhibition 2: replicate 2; for Inhibition 3: replicate 3; for Inhibition 4: replicate 4
T5 construct: expressed in transfected cells
T5 sequence (P35372 whole entry): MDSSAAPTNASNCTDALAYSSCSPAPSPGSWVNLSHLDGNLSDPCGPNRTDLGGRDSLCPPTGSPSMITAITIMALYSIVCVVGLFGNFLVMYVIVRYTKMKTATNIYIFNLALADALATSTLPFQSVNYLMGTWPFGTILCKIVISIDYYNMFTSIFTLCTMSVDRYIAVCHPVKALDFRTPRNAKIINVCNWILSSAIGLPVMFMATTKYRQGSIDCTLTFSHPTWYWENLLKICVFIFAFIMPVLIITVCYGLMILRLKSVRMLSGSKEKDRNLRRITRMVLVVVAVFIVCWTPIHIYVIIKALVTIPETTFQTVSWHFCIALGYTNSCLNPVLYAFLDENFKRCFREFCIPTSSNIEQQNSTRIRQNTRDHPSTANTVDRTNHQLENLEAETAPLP
Description: as §1

[6] = target: T6, cloned human or rodent CNS receptors, channels, and transporters (PDSP panel) (Homo sapiens, UniProt P35462); details: D3, primary assay; for Mean %: mean inhibition; for Inhibition 1: replicate 1; for Inhibition 2: replicate 2; for Inhibition 3: replicate 3; for Inhibition 4: replicate 4
T6 construct: expressed in transfected cells
T6 sequence (P35462 whole entry): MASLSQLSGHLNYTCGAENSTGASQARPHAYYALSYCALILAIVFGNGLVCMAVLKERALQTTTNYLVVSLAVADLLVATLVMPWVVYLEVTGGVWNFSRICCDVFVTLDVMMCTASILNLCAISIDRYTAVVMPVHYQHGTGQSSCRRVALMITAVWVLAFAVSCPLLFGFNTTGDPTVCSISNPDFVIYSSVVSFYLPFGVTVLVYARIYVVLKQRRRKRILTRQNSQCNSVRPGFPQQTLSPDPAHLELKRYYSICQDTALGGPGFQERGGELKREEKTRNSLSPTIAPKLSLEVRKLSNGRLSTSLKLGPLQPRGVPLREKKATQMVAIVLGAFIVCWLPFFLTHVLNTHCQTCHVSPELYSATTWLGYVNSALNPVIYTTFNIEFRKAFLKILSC
Description: as §1

[7] = target: T7, cloned human or rodent CNS receptors, channels, and transporters (PDSP panel) (Homo sapiens, UniProt P50406); details: 5-HT6, primary assay; for Mean %: mean inhibition; for Inhibition 1: replicate 1; for Inhibition 2: replicate 2; for Inhibition 3: replicate 3; for Inhibition 4: replicate 4
T7 construct: expressed in transfected cells
T7 sequence (P50406 whole entry): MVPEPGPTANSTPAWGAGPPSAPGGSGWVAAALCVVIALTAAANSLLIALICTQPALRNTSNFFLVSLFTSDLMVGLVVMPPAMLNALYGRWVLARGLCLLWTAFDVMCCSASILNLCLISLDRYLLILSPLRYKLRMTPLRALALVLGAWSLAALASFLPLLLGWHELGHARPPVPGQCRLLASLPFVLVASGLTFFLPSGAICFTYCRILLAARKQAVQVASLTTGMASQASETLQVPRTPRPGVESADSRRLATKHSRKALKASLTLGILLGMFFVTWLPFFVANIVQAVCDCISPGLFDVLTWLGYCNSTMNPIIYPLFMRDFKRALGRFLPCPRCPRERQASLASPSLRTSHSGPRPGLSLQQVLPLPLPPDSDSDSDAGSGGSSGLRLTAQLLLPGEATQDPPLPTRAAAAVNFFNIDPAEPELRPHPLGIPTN
Description: as §1

[8] = target: T8, cloned human or rodent CNS receptors, channels, and transporters (PDSP panel) (Rattus norvegicus, UniProt P16257); details: PBR, primary assay; for Mean %: mean inhibition; for Inhibition 1: replicate 1; for Inhibition 2: replicate 2; for Inhibition 3: replicate 3; for Inhibition 4: replicate 4
T8 construct: expressed in transfected cells
Description: as §1

Compound | Mean % [1] | Inhibition 1 [1] | Inhibition 2 [1] | Inhibition 3 [1] | Inhibition 4 [1] | Mean % [2] | Inhibition 1 [2] | Inhibition 2 [2] | Inhibition 3 [2] | Inhibition 4 [2] | Mean % [3] | Inhibition 1 [3] | Inhibition 2 [3] | Inhibition 3 [3] | Inhibition 4 [3] | Mean % [4] | Inhibition 1 [4] | Inhibition 2 [4] | Inhibition 3 [4] | Inhibition 4 [4] | also measured
CNc1nc(C)nc(N[C@H]2CCC[C@@H](C(=O)NCc3ccc(C#N)cc3C(F)(F)F)C2)n1 [UNC10302679A, GSK2256294A] | 14.93% | 10.45% | 4.02% | 7.46% | 37.78% | -5.74% | 6.11% | -4.99% | -11.01% | -13.08% | 1.63% | 7.99% | 2.67% | -7.08% | 2.95% | 1.71% | 1.79% | 6.56% | 8.79% | -10.29% | Mean % [5]: -0.18%; Inhibition 1 [5]: -0.8%; Inhibition 2 [5]: 0.06%; Inhibition 3 [5]: 1.4%; Inhibition 4 [5]: -1.38%; Mean % [6]: -12.51%; Inhibition 1 [6]: -10.05%; Inhibition 2 [6]: -18.34%; Inhibition 3 [6]: -11.4%; Inhibition 4 [6]: -10.24%; Mean % [7]: -6.87%; Inhibition 1 [7]: 12.58%; Inhibition 2 [7]: -11.55%; Inhibition 3 [7]: -17.27%; Inhibition 4 [7]: -11.23%; Mean % [8]: 61.99% and 50.52%; Inhibition 1 [8]: 64.51% and 57.62%; Inhibition 2 [8]: 61.79% and 51.24%; Inhibition 3 [8]: 61.7% and 45.98%; Inhibition 4 [8]: 59.94% and 47.25%
CCC(=O)N1CCC(NC(=O)Nc2ccc(OC(F)(F)F)cc2)CC1 [UNC10302681A, TPPU] | 27.22% | 20.33% | 6.55% | 30.66% | 51.34% | -5.22% | 4.61% | -16.27% | -3.29% | -5.93% | 3.57% | 4.75% | 5.92% | 13.87% | -10.26% | -4.36% | 0.45% | -10.14% | -9.09% | 1.34% | Mean % [5]: 7.56%; Inhibition 1 [5]: 7.83%; Inhibition 2 [5]: 3.61%; Inhibition 3 [5]: 10.7%; Inhibition 4 [5]: 8.11%; Mean % [6]: -4.85%; Inhibition 1 [6]: -1.18%; Inhibition 2 [6]: -5.62%; Inhibition 3 [6]: -5.04%; Inhibition 4 [6]: -7.54%; Mean % [7]: -0.91%; Inhibition 1 [7]: 25.92%; Inhibition 2 [7]: -7.74%; Inhibition 3 [7]: -9.33%; Inhibition 4 [7]: -12.5%; Mean % [8]: 4.31% and 5.42%; Inhibition 1 [8]: 20.73% and 18.86%; Inhibition 2 [8]: -4.07% and -6.82%; Inhibition 3 [8]: -2.57% and 2.75%; Inhibition 4 [8]: 3.14% and 6.9%
